Among the data in patent publication US11897865B2, “ABHD12 inhibitors and methods of making and using same” (THE SCRIPPS RESEARCH INSTITUTE, priority 2018, dated 2024) are inhibition and IC50 values, retold here.

Each structure is given as a SMILES string. Where only a bound is given, the exact number is not on record here.

In experiment [1] the target is T1, ABHD12 (Mus musculus, UniProt Q99LR1).
T1 construct: from tissue; host or cells: brain membrane proteome
T1 sequence (Q99LR1 1-398): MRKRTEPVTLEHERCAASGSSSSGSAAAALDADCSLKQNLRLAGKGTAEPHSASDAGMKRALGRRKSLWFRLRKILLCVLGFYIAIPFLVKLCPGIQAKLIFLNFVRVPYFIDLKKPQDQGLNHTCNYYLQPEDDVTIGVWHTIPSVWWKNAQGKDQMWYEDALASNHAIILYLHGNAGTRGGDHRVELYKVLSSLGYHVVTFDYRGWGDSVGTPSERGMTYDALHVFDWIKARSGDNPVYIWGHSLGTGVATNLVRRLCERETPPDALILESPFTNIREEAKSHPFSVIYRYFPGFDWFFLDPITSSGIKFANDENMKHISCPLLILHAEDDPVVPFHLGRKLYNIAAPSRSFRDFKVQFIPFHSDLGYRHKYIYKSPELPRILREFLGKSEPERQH
As to the kind of experiment: Gel-based competitive ABPP, JJH350 probe vs brain membrane proteome. The class given is biochemical. To be noted: for inhibition at 10 µM: 10 μM compound, read-out: % Inhibition @ 10 μM (ABPP gel_JJH350 probe vs brain mem); for IC50: read-out: IC50 (ABPP gel_JJH350 probe vs brain mem). In a few lines: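 Mouse membrane proteome (1 mg/mL) labeled 45 min at 37 °C with alkyne probe JJH350 (2 μM final) or FP-Rh (1 μM final). JJH350 targets were visualized after CuAAC with rhodamine-azide (1 h, room temperature), SDS-PAGE (10%) and in-gel fluorescence scanning, with band intensities quantified.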

Experiment [2] concerns the target T2, ABHD12 (Homo sapiens, UniProt Q8N2K0).
T2 construct: expressed in transfected cells; host or cells: HEK293T
T2 sequence (Q8N2K0 1-398): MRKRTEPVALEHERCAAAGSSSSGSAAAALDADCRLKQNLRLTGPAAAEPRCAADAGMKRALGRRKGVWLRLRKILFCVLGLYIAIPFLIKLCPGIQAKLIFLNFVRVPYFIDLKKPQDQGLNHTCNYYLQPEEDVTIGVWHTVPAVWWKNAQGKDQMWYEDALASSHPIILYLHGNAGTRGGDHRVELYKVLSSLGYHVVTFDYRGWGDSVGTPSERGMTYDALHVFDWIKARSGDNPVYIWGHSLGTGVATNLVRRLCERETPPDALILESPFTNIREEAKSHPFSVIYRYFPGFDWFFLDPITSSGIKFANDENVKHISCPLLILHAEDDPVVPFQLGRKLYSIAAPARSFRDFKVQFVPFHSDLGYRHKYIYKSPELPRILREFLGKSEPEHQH
As to the kind of experiment: Lyso-PS hydrolysis assay (substrate-based), ABHD12-overexpressing HEK293T membrane lysate. The class given is biochemical. To be noted: 17:1 lyso-PS substrate; ABHD12-overexpressed HEK lysate; read-out: IC50 (Substrate-based assay_ABHD12-overexpressed HEK lysate). The procedure:
Lyso-PS Hydrolysis Assay:
The lyso-PS lipase activity of ABHD12 was determined as previously described (Blankman, J. L., Long, J. Z., Trauger, S. A., Siuzdak, G. & Cravatt, B. F. ABHD12 controls brain lysophosphatidylserine pathways that are deregulated in a murine model of the neurodegenerative disease PHARC. Proc. Natl. Acad. Sci. U. S. A. 110, 1500-1505, doi:10.1073/pnas.1217121110 (2013)) with some minor modifications. The proteome concentrations were adjusted to 0.25 mg/mL (ABHD12-overexpressing HEK293T membrane) or 0.5 mg/mL (mouse brain membrane) in Dulbecco's phosphate-buffered saline (DPBS) (80 μL/reaction). 20 μL of 500 μM 17:1 lyso-PS in DPBS was added to each reaction (100 μM final concentration) and incubated at 37° C. After 30 min, the reaction was quenched with 400 μL of 2:1 CHCl3/MeOH (v/v) with 1 nmol 15:0 FFA as an internal standard. The mixture was vortexed and centrifuged at 1,400× g to separate the aqueous and organic phase. The organic phase was analyzed by LC-MS (1200 LC/MSD, Agilent Technologies). The separation of the analyte was achieved using a 50 mm×4.6 mm 5 μm Gemini C18 column (Phenomenex) coupled to a guard column (Gemini: C18: 4×3 mm). The LC solvents were as follows: buffer A, […] (95:5, v/v) with 0.1% NH4OH (v/v); and buffer B, iPrOH:MeOH:H2O (60:3 5:5, v/v/v) with 0.1% NH4OH (v/v). The LC method consisted of 0.1 mL/min 20% buffer B for 1.0 min, 0.4 ml/min isocratic mode of 100% buffer B over 7 min and equilibration with 0.5 mL/min 100% buffer A for 3 min. The MS analyses were performed using an electrospray ionization source (ESI) in negative ion mode to measure product formation. MS data were acquired in selected ion monitoring mode at m/z 267.20 for 17:1 FFA and m/z 241.20 for 15:0 FFA.

As to `FC(F)(F)c1ccc(N2CCC(NC(=S)Nc3cccnc3)CC2)nc1` [Example 14, 1-(Pyridin-3-yl)-3-(1-(5-(trifluoromethyl)pyridin-2-yl)piperidin-4-yl)thiourea], the inhibition at 10 µM on ABHD12 [1] was not below 75%. For the same molecule, the IC50 at ABHD12 [1] and at ABHD12 [2] was 1000 to 25000 nM in each case.
On to `FC(F)(F)c1ccnc(N2CCC(NC(=S)Nc3cccnc3)CC2)c1` [Example 15, 1-(Pyridin-3-yl)-3-(1-(4-(trifluoromethyl)pyridin-2-yl)piperidin-4-yl)thiourea], for which, at ABHD12 [1], the inhibition at 10 µM is not below 75% and the half-inhibitory concentration (IC50) lay within 100 to 1000 nM. Besides, the half-inhibitory concentration (IC50) on ABHD12 [2] is 1000 to 25000 nM.
The corresponding values for `FC(F)(F)c1cccnc1N1CCC(NC(=S)Nc2cccnc2)CC1` [Example 16, 1-(Pyridin-3-yl)-3-(1-(3-(trifluoromethyl)pyridin-2-yl)piperidin-4-yl)thiourea] are 25 to 50%, 1000 to 25000 nM and 1000 to 25000 nM.
For `FC(F)(F)c1cc(N2CCC(NC(=S)Nc3cccnc3)CC2)ncc1Cl` [Example 25, 1-(1-(5-Chloro-4-(trifluoromethyl)pyridin-2-yl)piperidin-4-yl)-3-(pyridin-3-yl)thiourea], on ABHD12 [1], the inhibition at 10 µM was not below 75% and the concentration for half-maximal inhibition (IC50) is 1000 to 25000 nM. Further, on ABHD12 [2], the IC50 lay within 1000 to 25000 nM.
For `FC(F)(F)c1ccnc(N2CCC(NC(=S)Nc3cccnc3)CC2)c1Cl` [Example 26, 1-(1-(3-Chloro-4-(trifluoromethyl)pyridin-2-yl)piperidin-4-yl)-3-(pyridin-3-yl)thiourea], on ABHD12 [1], the inhibition at 10 µM is not below 75% and the IC50 is 100 to 1000 nM. Besides, at ABHD12 [2], the IC50 was in the range of 100 to 1000 nM.
Consider `FC(F)(F)c1cc(Cl)nc(N2CCC(NC(=S)Nc3cccnc3)CC2)c1` [Example 27, 1-(1-(6-Chloro-4-(trifluoromethyl)pyridin-2-yl)piperidin-4-yl)-3-(pyridin-3-yl)thiourea], for which, on ABHD12 [1], the inhibition at 10 µM was not below 75% and the IC50 was 100 to 1000 nM. Also, the concentration for half-maximal inhibition (IC50) on ABHD12 [2] lay in the range of 100 to 1000 nM.
In the case of `S=C(Nc1cccnc1)NC1CCN(c2cc(Cl)ccn2)CC1` [Example 28, 1-(1-(4-Chloropyridin-2-yl)piperidin-4-yl)-3-(pyridin-3-yl)thiourea], the inhibition at 10 µM at ABHD12 [1] was not below 75%. For the same molecule, the half-maximal inhibitory concentration (IC50) at ABHD12 [1] and at ABHD12 [2] was 1000 to 25000 nM throughout.
As to `FC(F)(F)c1cccc(N2CCC(NC(=S)Nc3cccnc3)CC2)n1` [Example 29, 1-(Pyridin-3-yl)-3-(1-(6-(trifluoromethyl)pyridin-2-yl)piperidin-4-yl)thiourea], on ABHD12 [1], the inhibition at 10 µM is not below 75% and the half-maximal inhibitory concentration (IC50) was 100 to 1000 nM. Besides, the IC50 on ABHD12 [2] is 100 to 1000 nM.
With `S=C(Nc1cccnc1)NC1CCN(c2cc(Oc3ccccc3)ccn2)CC1` [Example 40, 1-(1-(4-Phenoxypyridin-2-yl)piperidin-4-yl)-3-(pyridin-3-yl)thiourea], at ABHD12 [1], the inhibition at 10 µM was not below 75% and the IC50 is 1000 to 25000 nM. The half-maximal inhibitory concentration (IC50) on ABHD12 [2] lay in the range of 1000 to 25000 nM.
As to `Fc1ccc(Oc2ccnc(N3CCC(NC(=S)Nc4cccnc4)CC3)c2)cc1` [Example 41, 1-(1-(4-(4-Fluorophenoxy)pyridin-2-yl)piperidin-4-yl)-3-(pyridin-3-yl)thiourea], at ABHD12 [1], the inhibition at 10 µM is not below 75% and the IC50 is 1000 to 25000 nM. The IC50 on ABHD12 [2] lay in the range of 1000 to 25000 nM.
For `FC(F)(F)c1ccc(Oc2ccnc(N3CCC(NC(=S)Nc4cccnc4)CC3)c2)cc1` [Example 51, 1-(Pyridin-3-yl)-3-(1-(4-(4-(trifluoromethyl)phenoxy)pyridin-2-yl)piperidin-4-yl)thiourea], at ABHD12 [1], the inhibition at 10 µM was not below 75% and the IC50 was in the range of 100 to 1000 nM. Moreover, the IC50 at ABHD12 [2] was in the range of 100 to 1000 nM.
With `FC(F)(F)Oc1ccc(Oc2ccnc(N3CCC(NC(=S)Nc4cccnc4)CC3)c2)cc1Cl` [Example 54, 1-(1-(4-(3-Chloro-4-(trifluoromethoxy)phenoxy)pyridin-2-yl)piperidin-4-yl)-3-(pyridin-3-yl)thiourea], at ABHD12 [1], the inhibition at 10 µM is not below 75%. The IC50 at ABHD12 [2] lay in the range of 100 to 1000 nM.
As for `FC(F)(F)Oc1cc(Oc2ccnc(N3CCC(NC(=S)Nc4cccnc4)CC3)c2)ccc1Cl` [Example 57, 1-(1-(4-(4-Chloro-3-(trifluoromethoxy)phenoxy)pyridin-2-yl)piperidin-4-yl)-3-(pyridin-3-yl)thiourea], at ABHD12 [1], the inhibition at 10 µM was not below 75% and the half-inhibitory concentration (IC50) fell in the range of 100 to 1000 nM. Further, the 50% inhibitory concentration (IC50) on ABHD12 [2] lay in the range of 100 to 1000 nM.
`FC(F)(F)Oc1ccc(Oc2ccnc(N3CCC(NC(=S)Nc4cccnc4)CC3)c2C(F)(F)F)cc1` [Example 59, 1-(Pyridin-3-yl)-3-(1-(4-(4-(trifluoromethoxy)phenoxy)-3-(trifluoromethyl)pyridin-2-yl)piperidin-4-yl)thiourea]: at ABHD12 [1], the inhibition at 10 µM was not below 75% and the 50% inhibitory concentration (IC50) lay within 1000 to 25000 nM. Also, the 50% inhibitory concentration (IC50) at ABHD12 [2] lay in the range of 1000 to 25000 nM.
Turning to `FC(F)(F)Oc1ccc(Oc2ccnc(N3CCC(NC(=S)Nc4cccnc4)CC3)c2Cl)cc1Cl` [Example 65, 1-(1-(3-Chloro-4-(3-chloro-4-(trifluoromethoxy)phenoxy)pyridin-2-yl)piperidin-4-yl)-3-(pyridin-3-yl)thiourea], the half-inhibitory concentration (IC50) at ABHD12 [1] and at ABHD12 [2] was not above 100 nM each time.
As to `FC(F)(F)Oc1cccc(Oc2ccnc(N3CCC(NC(=S)Nc4cccnc4)CC3)c2Cl)c1` [Example 66, 1-(1-(3-Chloro-4-(3-(trifluoromethoxy)phenoxy)pyridin-2-yl)piperidin-4-yl)-3-(pyridin-3-yl)thiourea], the values for the IC50 at ABHD12 [1] and at ABHD12 [2] were not above 100 nM and 100 to 1000 nM, respectively.
Consider `FC(F)(F)Oc1ccccc1Oc1ccnc(N2CCC(NC(=S)Nc3cccnc3)CC2)c1Cl` [Example 67, 1-(1-(3-Chloro-4-(2-(trifluoromethoxy)phenoxy)pyridin-2-yl)piperidin-4-yl)-3-(pyridin-3-yl)thiourea], for which the half-inhibitory concentration (IC50) is not above 100 nM on ABHD12 [1] and 100 to 1000 nM on ABHD12 [2].
Consider `N#Cc1c(Oc2ccc(OC(F)(F)F)cc2)ccnc1N1CCC(NC(=S)Nc2cccnc2)CC1` [Example 71, 1-(1-(3-Cyano-4-(4-(trifluoromethoxy)phenoxy)pyridin-2-yl)piperidin-4-yl)-3-(pyridin-3-yl)thiourea], for which the half-maximal inhibitory concentration (IC50) at ABHD12 [1] and on ABHD12 [2] was 100 to 1000 nM each time.
For `Cc1c(Oc2ccc(OC(F)(F)F)cc2)ccnc1N1CCC(NC(=S)Nc2cccnc2)CC1` [Example 72, 1-(1-(3-Methyl-4-(4-(trifluoromethoxy)phenoxy)pyridin-2-yl)piperidin-4-yl)-3-(pyridin-3-yl)thiourea], the IC50 at ABHD12 [1] and at ABHD12 [2] was not above 100 nM throughout.
Regarding `COc1ccc(Oc2ccnc(N3CCC(NC(=S)Nc4cccnc4)CC3)c2)cc1` [Example 74, 1-(1-(4-(4-Methoxyphenoxy)pyridin-2-yl)piperidin-4-yl)-3-(pyridin-3-yl)thiourea], the concentration for half-maximal inhibition (IC50) on ABHD12 [1] and on ABHD12 [2] was 1000 to 25000 nM throughout.
